From patent US11591596B2, “Compounds and compositions including phosphorothioated oligodeoxynucleotide, and methods of use thereof” (City of Hope, priority 2015, dated 2023)

How the values were obtained:
[1] = tested on: miR126; assay: miRNA 126 expression in AML and CML cell lines by Q-RT-PCR; assay type: cell-based, human; conditions: 500 nM, 24 hours
Protocol: FIGS. 4A-4G are bar graphs showing miRNA 126 expression in AML and CML cell lines. Cells were cultured with miR126-inhibitor-Cy3 (Cy3-200 nM0, human CD45 (Ab-200 nM) or Transferrin (TF-200 nM)-conjugated NP containing antagomiR-126-Cy3, CpG-miR126 inhibitor-Cy3 (CpG-Cy3-200 nM and 500 nM) for 24 hours, then miR126 and RNU44 (control) expression in these cells was analyzed by q-RT PCR. The miR126 expression levels were normalized to RNU44 and calculated by using the comparative 2^−ΔΔct method. FIG. 4A is a bar graph showing miRNA 126 expression in the K562 CML cell line. FIG. 4B is a bar graph showing miRNA 126 expression in the KG1A AML cell line. FIG. 4C is a bar graph showing miRNA 126 expression in the MV4-11 AML cell line. FIG. 4D is a bar graph showing the miRNA 126 expression in the Molm13 AML cell line. FIG. 4E is a bar graph showing the miRNA 126 expression in the NB4 AML cell line. […]
miRNA 126 expression in AML and CML lines was evaluated. CML (K562) (FIG. 4A) and AML cell lines (KG1A, MV4-11, Molm13, NB4, OCI and HL60) (FIGS. 4B-4G) were cultured with anti-miR126 inhibitor-Cy3 (Cy3 ctrl, 200 nM), human CD45 (Ab-NP, 200 nM) or Transferrin (TF-NP, 200 nM)-conjugated NP containing anti-miR-126-Cy3, or CpG-anti-miR126 inhibitor-Cy3 (CpG-200 nM and 500 nM) for 24 hours, then miR126 and RNU44 (control) expression in these cells were analyzed by Q-RT-PCR.

[2] = tested on: miR126; assay: miR126 expression in CML CD34+CD38+ committed and CD34+CD38- primitive progenitors by q-RT-PCR; assay type: cell-based, human; conditions: 500 nM
Protocol: CML CD34+CD38+ committed and CD34+CD38− primitive progenitors were cultured with CpG-scramble RNA (500 nM) or CpG-miR126 inhibitor (500 nM) for 36 hours and then miR126 and RNU44 (control) expression in these cells were analyzed by q-RT-PCR. The miR126 expression levels were normalized to RNU44 and calculated by using the comparative 2^−ΔΔCt method.
CML CD34+, CD34+CD38+ committed and CD34+CD38− primitive progenitors were cultured with CpG-scramble RNA (500 nM), CpG-anti-miR126 inhibitor (500 nM), CpG-scramble RNA (500 nM)+Nilotinib (NIL, 5 uM), and CpG-anti-miR126 inhibitor (500 nM)+NIL (5 uM) for 72 hours and then cell cycling and apoptosis were analyzed by EDU/DAPi and Annexin V/DAPi staining.

[3] = tested on: Normal, cord blood, AML and CML CD34+ cells; assay: Uptake of CpG-anti-miR126 inhibitor-Cy3 in primary CD34+ cells, Cy3 by flow cytometry; assay type: cell-based, human; conditions: 500 nM; primary patients' AML and CML CD34+ cells
Protocol: FIGS. 2A-2D are flow cytometry histograms showing results of uptake tests in normal, cord blood, acute myeloid leukemia (AML), and chronic myeloid leukemia (CML) CD34+ cells. Normal (NL), cord blood (CB), AML and CML34+ cells were cultured with CpG-scramble RNA (500 nM) and CpG-miR126 inhibitor-Cy3 (500 nm) for 16 hours. FIG. 2A is a histogram showing uptake in NL/CB cells with 600 CpG siRNA. FIG. 2B is a histogram showing NL/CB cells with 500 CpG-siRNA. FIG. 2C is a histogram showing uptake in AML cells. FIG. 2D is a histogram showing uptake in CML cells. Uptake was measured by Cy3 expression in these cells by flow cytometry.
Normal, cord blood, AML and CML CD34+ cells were cultured with CpG-anti-miR126 inhibitor-Cy3 or anti-miR126 inhibitor-Cy3 for 16 hours, and the uptake was measured by Cy3 expression in the cells by flow cytometry (FIGS. 2A-2D). All tested cells internalized CpG-anti-miR126-Cy3 but not the anti-miR126-Cy3 with high efficiency.
(§1) Normal, cord blood, AML and CML CD34+ cells were cultured with CpG-scramble RNA (500 nM) and CpG-anti-miR126 inhibitor-Cy3 (500 nM) for 24 hours, and then miR126 and RNU44 (ctrl) expression in these cells were analyzed by Q-RT-PCR (FIG. 5). The miR126 expression levels were normalized to RNU44 and calculated by using the comparative 2^−ΔΔCt method.

[4] = tested on: miR126; assay: miRNA126 expression in NL/CB, AML and CML CD34+ cells by Q-RT-PCR; assay type: cell-based, human; conditions: 500 nM, 24 hours; primary patients' AML and CML CD34+ cells
Protocol: FIG. 5 is a bar graph showing the expression of miRNA 126 in NL/CB, AML and CML CD34+ cells. Normal, cord blood, AML and CML CD34+ cells were cultured with CpG-scramble RNA (500 nM) and CpG-miR 126 inhibitor-Cy3 (500 nM) for 24 hours. miR126 and RNU44 (control) expression was analyzed by q-RT-PCR. The miR126 expression levels were normalized to RNU44 and calculated by using the comparative 2^−ΔΔct method.
as §1

[5] = tested on: miR-126; assay: miR-126 expression in K562 and MV4-11 cells with miR-126 inhibitors or mimics; assay type: cell-based; conditions: 500 nM, 24 hours
Protocol: FIGS. 26A-26E. Effective knockdown of miR-126 with miR-126 inhibitors conjugated with CpG, GpC and PS, and effective over-expression with miR-126 mimics in K562 and MV4-11 cells. K562 and MV4-11 cells were treated with miR-126 inhibitors conjugated with CpG, GpC, PS (FIGS. 26A-26B) or miR-126 mimics (615, 616 and 617) (FIGS. 26C-26D) (500 nM) for 24 hours, and miR-126 expression was measured in these cells. […] FIG. 26E) Tabulation of sequence set forth herein.
Effective knockdown of miR-126 with miR-126 inhibitors conjugated with CpG, GpC and PS, and effective over-expression with miR-126 mimics in K562 and MV4-11 cells. K562 and MV4-11 cells were treated with miR-126 inhibitors conjugated with CpG, GpC, PS (FIGS. 26A-26B) or miR-126 mimics (615, 616 and 617) (FIGS. 26C-26D) (500 nM) for 24 hours, and miR-126 expression was measured in these cells.

## 5′ G*G*T GCA TCG ATG CAGG*G*G* G*G (SEQ ID NO: 1) xxxxx mCmGmC mAmUmU mAmUmU mAmCmU mCmAmC mGmGmU mAmCmG mA (SEQ ID NO: 17) 3′ [CpG-anti-miR126]
[1]; all tested human AML and CML cell lines
  downregulation of miRNA126: most effective downregulation
[1]; HL60, K562, MV4-11, MOLM13 and OCI cells
  reduction of target miRNA expression: more than 50%
[2]
  reduction of miR126 expression: More than 90%
[3]
  internalization by primary cells: quickly internalized
[4]
  reduction of miR126 expression: 60%-90%
[5]
  miR-126 expression (knockdown by inhibitors): very effective in reducing miR-126
